Laboratory results: a melting point compilation (Tetko et al.; mined from patent text by program, amines drawn as free bases though some values may be those of a salt)

Q: For Cc1ccc(Cc2cnc(NCCCCc3ncc(Cl)cc3C)[nH]c2=O)cn1, which melting point is on record?
A: 140 to 141 °C

Q: Which melting point does the source give for Cc1ccc(-c2ccc3c(c2)C=C(C(=O)N[C@H]2CC[C@H](CN(C)C4CCOCC4)CC2)CCO3)cc1 here?
A: 144 to 146 °C

Q: With Cc1scnc1-c1cc(C(C)(C)C)c(O)c(C(C)(C)C)c1 as the compound, how does the melting point read?
A: 128 to 130 °C

Q: With Cc1c(OCC(C)(C)CS(N)(=O)=O)nn2ccnc2c1C as the compound, how does the melting point read?
A: 222 to 225 °C

Q: For Cc1cc(Cl)cc(Cl)c1OC(=O)c1ccc(CCl)cc1, which melting point is on record?
A: 74 to 75 °C

Q: With Cc1ccc(-c2cc(Cl)c3ccccc3n2)cc1Cl as the compound, how does the melting point read?
A: 115 to 116 °C

Q: For Cc1cc(-c2ccc3c(=O)c(C(=O)O)cn(C4CC4)c3c2C)cnc1CO, which melting point is on record?
A: 225 to 226 °C

Q: With O=[N+]([O-])c1cc(C(F)(F)F)ccc1Sc1ccc(O)cc1 as the compound, how does the melting point read?
A: 131 to 134 °C

Q: Which melting point does the source give for c1ccc(COc2ccc3ccc(OCc4ccccc4)cc3c2)cc1 here?
A: 161 °C

Q: Which melting point does the source give for Sc1nc2cc3ccccc3cc2o1 here?
A: 101 to 102 °C

Q: For CNC(=O)NCCCn1cc(Cn2ccnc2)c2ccccc21, which melting point is on record?
A: 123 to 124 °C

Q: Which melting point does the source give for Nc1ccccc1NC(=O)c1ccc(COC(=O)NCc2cccnc2)cc1 here?
A: 139 to 141 °C

Q: With O=C1N(Cc2ccccn2)c2cccc(-c3cnc4ccccc4c3)c2C12COc1cc3c(cc12)OCCO3 (configuration not stated) as the compound, how does the melting point read?
A: 228 to 230 °C

Q: Which melting point does the source give for CCCc1cc(C(=O)CCCC(=O)O)ccc1OC here?
A: 105 to 106 °C

Q: With CNS(=O)(=O)c1cc(C(=O)O)cc(N)c1Oc1ccccc1 as the compound, how does the melting point read?
A: 283 °C

Q: Which melting point does the source give for CC(C(=O)O)c1c(-c2ccccc2)nn(-c2ccccc2)c1-c1ccccc1 (configuration not stated) here?
A: 95 to 99 °C

Q: With OCc1c(Br)c(Br)c(Br)c(CO)c1Br as the compound, how does the melting point read?
A: 248 to 252 °C

Q: Which melting point does the source give for CC1(C)CN(CC2Cc3ccccc3O2)c2nc(-c3ccncc3)cc(=O)n2C1 (racemic) here?
A: 147 to 149 °C

Q: Which melting point does the source give for CSc1cc(CF)nc(N)n1 here?
A: 95 to 97 °C

Q: With O=C(O)C(Cc1ccccc1)Oc1ccc(-c2ccc(-c3c(Cc4ccccc4)sc4ccccc34)cc2)cc1Br (configuration not stated) as the compound, how does the melting point read?
A: 81 to 83 °C

Q: Which melting point does the source give for CN1c2ccc(C=C(c3ccccc3)c3ccccc3)cc2Sc2cc(C=C(c3ccccc3)c3ccccc3)ccc21 here?
A: 233 to 241 °C

Q: For CC#Cc1ncccc1C(=O)c1ccccc1Cl, which melting point is on record?
A: 45 to 49 °C

Q: Which melting point does the source give for CCOC(=O)COc1ccc2c(=O)c3c(oc2c1)C(=Cc1ccccc1)CC3 here?
A: 152 to 154 °C

Q: With Cc1ccc(CCc2ccccc2)c(OCC[C@@H]2C[C@@H](O)CN2C)c1 as the compound, how does the melting point read?
A: 97 to 100 °C

Q: For O=C(NC1CCN(CCC(O)C(=O)C(O)CCN2CCC(NC(=O)c3ccccc3)CC2)CC1)c1ccccc1 (configuration not stated), which melting point is on record?
A: 154 to 155 °C

Q: Which melting point does the source give for c1ccc(Oc2cccc(CSc3nc4cnccc4[nH]3)c2)cc1 here?
A: 156 to 158 °C

Q: For O=C(Nc1ccccc1NS(=O)(=O)c1ccc(Cl)cc1)c1ccccc1, which melting point is on record?
A: 191 to 192 °C

Q: For CCCCCCCCCCCCOc1ccc(NC(=O)C(=O)OCC)cc1, which melting point is on record?
A: 70.5 to 72 °C

Q: With Cc1c(N2CCC(O)CC2)c(F)cc2c(=O)c(C(=O)O)cn(C3CC3)c12 as the compound, how does the melting point read?
A: 234 to 236 °C

Q: Which melting point does the source give for COc1ccc2c(c1)cc(Cc1cc3cc(OC)ccc3n1S(=O)(=O)c1ccccc1)n2S(=O)(=O)c1ccccc1 here?
A: 159 to 160 °C

Q: For COc1ccc(COc2ccc([N+](=O)[O-])cc2)cc1, which melting point is on record?
A: 122 to 124 °C

Q: With COc1nc(C)nc(NC(=O)NS(=O)(=O)Cc2ccccc2-c2nnc(SC)o2)n1 as the compound, how does the melting point read?
A: 175 to 177 °C

Q: For CC(=O)c1cc2c(=O)n(NS(C)(=O)=O)c(=O)[nH]c2cc1C(F)(F)F, which melting point is on record?
A: 258 to 265 °C

Q: With OC1(c2ccc(Cl)cc2)CCN(CCCc2noc3cc(F)ccc23)CC1 as the compound, how does the melting point read?
A: 142 to 145 °C

Q: Which melting point does the source give for COc1ccc(N2CCN(c3ccc(N4C(=O)N(C(C)C(C)=O)C(C)(C)C4=O)cc3)CC2)cc1 (configuration not stated) here?
A: 226 °C

Q: Which melting point does the source give for O=C(Nc1ccc(-c2ccc3c(NC(=O)c4ccccc4)n[nH]c3c2F)cc1)Nc1cc(C(F)(F)F)ccc1F here?
A: 206 to 207 °C

Q: For CC(C)CCCC(C)C1CCC2C3C(=O)C=C4CC(O)CCC4(C)C3CCC12C (configuration not stated), which melting point is on record?
A: 169 to 170 °C

Q: For Cc1nnc2n1-c1ccc(I)cc1C(c1ccccc1F)=NC2, which melting point is on record?
A: 235 to 238 °C

Q: For Cc1ccc(Cn2cc(C(=O)C(=O)NC3=CC(=O)OC3)c3ccc(F)cc32)cc1, which melting point is on record?
A: 218 to 220 °C

Q: Which melting point does the source give for CCc1ccc(C2C(C#N)=C(CC(C)C)NC(C)=C2C(=O)OC(C)(C)C)cc1 (configuration not stated) here?
A: 165 to 166 °C

Q: For CCCn1c(=O)n2c(=O)n(COCc3ccccc3)nc2c2c1ncn2COCc1ccccc1, which melting point is on record?
A: 88.9 to 90.3 °C

Q: Which melting point does the source give for CCCN1CCC(c2ccccc2)=C(C(=O)NOCc2ccccc2)C1 here?
A: 143 to 145 °C

Q: Which melting point does the source give for Cc1ccc(S(=O)(=O)N2CC(CO)(CO)C2)cc1 here?
A: 148 to 150 °C

Q: For COC(=O)c1cc(-c2ccccc2)c(=O)n2c1-c1cc(Cl)ccc1CC2, which melting point is on record?
A: 139 to 141 °C

Q: With COc1ccc(-c2c(Cl)c(CN3C(=O)CCC3=O)nc3sc4c(c23)CC[C@H](C(N)=O)C4)cc1 as the compound, how does the melting point read?
A: 282 to 283 °C

Q: Which melting point does the source give for CCOC(=O)c1cn(CC)c2nc(N3CCN(Cc4ccc(Cl)cc4)CC3)ncc2c1=O here?
A: 150 °C

Q: For C#CCOc1cc(-c2nn(C)c(S(C)(=O)=O)c2C)c(F)cc1Cl, which melting point is on record?
A: 123 to 124 °C

Q: With O=C1C[C@H](O)C[C@@H](/C=C/c2cnc3ccccc3c2-c2cccs2)O1 as the compound, how does the melting point read?
A: 102 to 104 °C

Q: With Cc1nc2c(O[C@@H]3c4ccccc4C[C@H]3O)cc(Cl)cn2c1C=O (relative stereo) as the compound, how does the melting point read?
A: 220 to 222 °C

Q: For CCCCCCCC(=O)Nc1ccn(C2OC(CO)C(O)C2O)c(=O)n1 (configuration not stated), which melting point is on record?
A: 151 to 153 °C

Q: Which melting point does the source give for C=CCc1c(OCCCSCc2nnn[nH]2)ccc(C(C)=O)c1O here?
A: 129 to 132 °C

Q: With CCCCCC1CCC(C2CCC(CC(O)CC)CC2)CC1 (configuration not stated) as the compound, how does the melting point read?
A: 131 °C

Q: For O=C(c1cccs1)c1cnn2c(-c3cccc(NC(=O)C4CCNCC4)c3)ccnc12, which melting point is on record?
A: 159 to 161 °C

Q: With O=CC(CC(=O)O)NC(=O)[C@@H]1CCCN1C(=O)c1nc(CCc2ccccc2)c[nH]1 (some centres not stated) as the compound, how does the melting point read?
A: 102 to 104 °C

Q: For Nc1cc(C2=NOC(c3cc(Cl)cc(Cl)c3)(C(F)(F)F)C2)ccc1C(=O)NCC(F)(F)F (configuration not stated), which melting point is on record?
A: 78 to 79 °C

Q: For COc1ccc(-c2cc(OCc3ccccc3)c(=O)n(C)c2-c2ccncc2)cc1, which melting point is on record?
A: 127 to 130 °C

Q: For COc1ccc(-n2nnnc2CC(=O)C(F)(F)F)cc1C=O, which melting point is on record?
A: 128 °C

Q: For Cc1c(C#N)n(-c2ccc(Cl)cc2)c(=O)n1C, which melting point is on record?
A: 138 to 140 °C

Q: Which melting point does the source give for CC(C)c1cn2ccccc2c1S(=O)(=O)c1ccc(OCCCN2CCC(c3ccccc3)CC2)cc1 here?
A: 79 to 80 °C

Q: For Cc1cc2cc(CN3CCC(CC(=O)N4CCCCC4)CC3)cnc2cc1NC(=O)c1ccc(-c2ccc(F)cc2)cc1, which melting point is on record?
A: 216 °C

Q: Which melting point does the source give for O=C(N[C@@H]1CCc2ccccc21)C(F)(F)F here?
A: 152 to 153 °C

Q: For Cc1nc(-c2ccc(C(F)(F)F)cc2)oc1COc1ccc(CC(=O)O)cc1Cl, which melting point is on record?
A: 189 to 191 °C

Q: With COc1cc(C(=O)O)cc(OC)c1-c1ccc(C[C@H](NC(=O)c2c(Cl)cccc2Cl)C(=O)O)cc1 as the compound, how does the melting point read?
A: 277 to 278 °C

Q: Which melting point does the source give for CC(C)(C)c1nc(Cl)c2ccccc2c1-c1ccccc1 here?
A: 139 to 140 °C

Q: Which melting point does the source give for O=[N+]([O-])c1ccc2oc(-c3ccccc3)cc2c1 here?
A: 159 °C

Q: Which melting point does the source give for COc1ccccc1N1CCN(CCn2nc(-c3c(-c4ccccc4)nn4ccccc34)ccc2=O)CC1 here?
A: 120 to 125 °C

Q: Which melting point does the source give for COc1cc(C(=O)NC2CCN(C)CC2)c(F)cc1Nc1ncc2c(n1)N(C1CCCC1)CC(F)(F)C(=O)N2C here?
A: 194 to 196 °C
